For one assay, the system named is Kuramochi. Put plainly: drug sensitivity score (DSS) from 5-point dose-response viability curve (DSS (area-under-curve based score)); higher = more sensitive (stronger growth inhibition or killing); extreme values may be limits of the assay. The note with it: exposure time: 72 h; concentration range: 5 concentrations over 10,000-fold range. A digest of the protocol: (§1)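 Ovarian cancer and normal ovarian cell lines were tested in 384-well plates. Drugs were acoustically dispensed (Echo 550) in DMSO or water at five concentrations spanning a 10,000-fold range, then 1,500 cells per well were added and incubated 3 days at 37°C, 5% CO2. Viability was read by CellTiter-Glo luminescence on a PHERAstar FS. Drug sensitivity score was derived per cell line and drug with Breeze software; higher means more sensitive, zero means no response.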
On to `CC(C)(C)c1cc(NC(=O)Nc2ccc(Oc3ccnc4[nH]c(=O)cnc34)cc2F)n(-c2ccccc2)n1`, for which the drug sensitivity score was 2.3.

As to `CCn1c(-c2nonc2N)nc2c(C#CC(C)(C)O)ncc(OC[C@H]3CCCNC3)c21`, the drug sensitivity score stood at 2.9.

In turn, `CCn1cc(-c2ccnc3[nH]c(-c4cccc(CN(C)C)c4)cc23)c(-c2ccc(NC(=O)N(C)C)cc2)n1` gave a drug sensitivity score of 0.4.

On to `CN1CCN(C2CCC(n3cc(-c4ccc(Oc5ccccc5)cc4)c4c(N)ncnc43)CC2)CC1` (stereo unspecified), for which the drug sensitivity score turned out to be 12.6.

`CNC(=O)c1ccccc1Nc1nc(Nc2ccc3c(c2OC)CCC[C@H](N2CCN(CCO)CC2)C3)ncc1Cl` gave a drug sensitivity score of 6.4.

In turn, `CNc1nc(-c2ccc3c(N)n[nH]c3c2)cc(N2C[C@@H](C(=O)NC3CCCCC3)CC[C@H]2C)n1` returned a drug sensitivity score of 0.5.

`CONC(=O)c1ccccc1Nc1cc(Nc2cc(C)nn2C(C)C)ncc1Cl` gave a drug sensitivity score of 1.4.

The compound `COc1cc2ncnc(Oc3cccc(NC(=O)Nc4cc(C(C)(C)C(F)(F)F)on4)c3)c2cc1OC` returned a drug sensitivity score of 0.4.

In turn, `COc1ccc2[nH]cc(/C=C3\C(=O)Nc4ccc(NC(=O)CCN5CCCCC5)cc43)c2c1` displayed a drug sensitivity score of 5.7.

In turn, `C[C@@H](Oc1cc(-n2cnc3ccc(CN4CCN(C)CC4)cc32)sc1C(N)=O)c1ccccc1C(F)(F)F` returned a drug sensitivity score of 7.7.

`O=C(NC[C@H](O)CN1CCc2ccccc2C1)c1cc(NC2COC2)ncn1`: the drug sensitivity score was 0.4.

In turn, `O=C1Cc2cc(C(=O)NC3C[C@H]4CC[C@@H](C3)N4S(=O)(=O)CC3CCN(CCCC(F)(F)F)CC3)c(Cl)cc2N1` (stereo partly specified) had a drug sensitivity score of 0.

A further assay concerns COV362. The description is as above. Conditions: exposure time: 72 h; concentration range: 5 concentrations over 10,000-fold range. Put shortly: as §1
In turn, `CC(C)(C)c1cc(NC(=O)Nc2ccc(Oc3ccnc4[nH]c(=O)cnc34)cc2F)n(-c2ccccc2)n1` came in with a drug sensitivity score of 0.

For `CCn1c(-c2nonc2N)nc2c(C#CC(C)(C)O)ncc(OC[C@H]3CCCNC3)c21`, the drug sensitivity score was found to be 1.3.

Take `CCn1cc(-c2ccnc3[nH]c(-c4cccc(CN(C)C)c4)cc23)c(-c2ccc(NC(=O)N(C)C)cc2)n1`: the drug sensitivity score is 0.2.

As for `CN1CCN(C2CCC(n3cc(-c4ccc(Oc5ccccc5)cc4)c4c(N)ncnc43)CC2)CC1` (stereo unspecified), the drug sensitivity score turned out to be 11.5.

Compound `CNC(=O)c1ccccc1Nc1nc(Nc2ccc3c(c2OC)CCC[C@H](N2CCN(CCO)CC2)C3)ncc1Cl` gave a drug sensitivity score of 5.4.

Take `CNc1nc(-c2ccc3c(N)n[nH]c3c2)cc(N2C[C@@H](C(=O)NC3CCCCC3)CC[C@H]2C)n1`: the drug sensitivity score came out at 0.

`CONC(=O)c1ccccc1Nc1cc(Nc2cc(C)nn2C(C)C)ncc1Cl`: the drug sensitivity score was 0.2.

Turning to `COc1cc2ncnc(Oc3cccc(NC(=O)Nc4cc(C(C)(C)C(F)(F)F)on4)c3)c2cc1OC`, the drug sensitivity score was found to be 0.

With `COc1ccc2[nH]cc(/C=C3\C(=O)Nc4ccc(NC(=O)CCN5CCCCC5)cc43)c2c1`, the drug sensitivity score is 8.7.

Compound `C[C@@H](Oc1cc(-n2cnc3ccc(CN4CCN(C)CC4)cc32)sc1C(N)=O)c1ccccc1C(F)(F)F` registered a drug sensitivity score of 3.6.

In turn, `O=C(NC[C@H](O)CN1CCc2ccccc2C1)c1cc(NC2COC2)ncn1` returned a drug sensitivity score of 0.

Consider `O=C1Cc2cc(C(=O)NC3C[C@H]4CC[C@@H](C3)N4S(=O)(=O)CC3CCN(CCCC(F)(F)F)CC3)c(Cl)cc2N1` (stereo partly specified), for which the drug sensitivity score amounted to 0.

As to `CCN(CC)CCCC(C)Nc1ccnc2cc(Cl)ccc12` (stereo unspecified) [Chloroquine], the drug sensitivity score was 5.5.

The compound `Nc1ccn([C@@H]2O[C@H](CO)[C@@H](O)[C@@H]2O)c(=O)n1` [Cytarabine] yielded a drug sensitivity score of 2.3.

In the case of `Cc1ccc(NC(=O)c2ccc(CN3CCN(C)CC3)cc2)cc1Nc1nccc(-c2cccnc2)n1` [Imatinib], the drug sensitivity score came to 0.3.

`CC[C@H](CO)Nc1nc(NCc2ccccc2)c2ncn(C(C)C)c2n1` [Seliciclib]: the drug sensitivity score came out at 0.

The subject of the next assay is OVCAR8. Described as above. Conditions: exposure time: 72 h; concentration range: 5 concentrations over 10,000-fold range. A digest of the protocol: as §1
In turn, `CC(C)(C)c1cc(NC(=O)Nc2ccc(Oc3ccnc4[nH]c(=O)cnc34)cc2F)n(-c2ccccc2)n1` gave a drug sensitivity score of 2.

For the compound `CCn1c(-c2nonc2N)nc2c(C#CC(C)(C)O)ncc(OC[C@H]3CCCNC3)c21`, the drug sensitivity score came out at 0.

In the case of `CCn1cc(-c2ccnc3[nH]c(-c4cccc(CN(C)C)c4)cc23)c(-c2ccc(NC(=O)N(C)C)cc2)n1`, the drug sensitivity score was 1.9.

With `CN1CCN(C2CCC(n3cc(-c4ccc(Oc5ccccc5)cc4)c4c(N)ncnc43)CC2)CC1` (stereo unspecified), the drug sensitivity score was 9.4.

Compound `CNC(=O)c1ccccc1Nc1nc(Nc2ccc3c(c2OC)CCC[C@H](N2CCN(CCO)CC2)C3)ncc1Cl` showed a drug sensitivity score of 4.9.

`CNc1nc(-c2ccc3c(N)n[nH]c3c2)cc(N2C[C@@H](C(=O)NC3CCCCC3)CC[C@H]2C)n1` showed a drug sensitivity score of 1.2.

As for `CONC(=O)c1ccccc1Nc1cc(Nc2cc(C)nn2C(C)C)ncc1Cl`, the drug sensitivity score worked out at 0.

`COc1cc2ncnc(Oc3cccc(NC(=O)Nc4cc(C(C)(C)C(F)(F)F)on4)c3)c2cc1OC` gave a drug sensitivity score of 0.

Regarding `COc1ccc2[nH]cc(/C=C3\C(=O)Nc4ccc(NC(=O)CCN5CCCCC5)cc43)c2c1`, the drug sensitivity score was determined as 8.8.

Compound `C[C@@H](Oc1cc(-n2cnc3ccc(CN4CCN(C)CC4)cc32)sc1C(N)=O)c1ccccc1C(F)(F)F` registered a drug sensitivity score of 29.1.

In the case of `O=C(NC[C@H](O)CN1CCc2ccccc2C1)c1cc(NC2COC2)ncn1`, the drug sensitivity score came out at 0.

`O=C1Cc2cc(C(=O)NC3C[C@H]4CC[C@@H](C3)N4S(=O)(=O)CC3CCN(CCCC(F)(F)F)CC3)c(Cl)cc2N1` (stereo partly specified): the drug sensitivity score stood at 0.

Regarding `CCN(CC)CCCC(C)Nc1ccnc2cc(Cl)ccc12` (stereo unspecified) [Chloroquine], the drug sensitivity score worked out at 5.8.

`Nc1ccn([C@@H]2O[C@H](CO)[C@@H](O)[C@@H]2O)c(=O)n1` [Cytarabine] showed a drug sensitivity score of 14.3.

`Cc1ccc(NC(=O)c2ccc(CN3CCN(C)CC3)cc2)cc1Nc1nccc(-c2cccnc2)n1` [Imatinib] showed a drug sensitivity score of 0.5.

As to `CC[C@H](CO)Nc1nc(NCc2ccccc2)c2ncn(C(C)C)c2n1` [Seliciclib], the drug sensitivity score amounted to 1.6.

Another assay deals with OVCAR5. Described as above. Conditions: exposure time: 72 h; concentration range: 5 concentrations over 10,000-fold range. A digest of the protocol:
as §1
For the compound `CC(C)(C)c1cc(NC(=O)Nc2ccc(Oc3ccnc4[nH]c(=O)cnc34)cc2F)n(-c2ccccc2)n1`, the drug sensitivity score came out at 1.8.

On to `CCn1c(-c2nonc2N)nc2c(C#CC(C)(C)O)ncc(OC[C@H]3CCCNC3)c21`, for which the drug sensitivity score turned out to be 0.

The values above are taken from the supplement of paper PMC11616607.
